According to ChEMBL document CHEMBL2346514, “Efficient synthesis and antimicrobial activity of some novel S-β-d-glucosides of 5-aryl-1,2,4-triazole-3-thiones derivatives” (2013):
Converted amounts (≈) assume the structure as drawn. The source made the active and inactive calls. The calls are words filed in the database; no cut-off is given here.

What was measured:
Type in all cases: functional
[1] = test system: Staphylococcus aureus; assay: Antibacterial activity against Staphylococcus aureus ATCC 6538 after 24 hrs by NCCLS method
[2] = Antifungal activity against Monilia albican ATCC 10231 after 24 to 72 hrs by NCCLS method
[3] = test system: Escherichia coli; assay: Antibacterial activity against Escherichia coli ATCC 8099 after 24 hrs by NCCLS method

Molecule | MBC ([1]; ATCC 6538, 24 h) | MIC ([1]; ATCC 6538, 24 h) | MFC [2] | MIC [2] | MBC ([3]; ATCC 8099, 24 h) | MIC ([3]; ATCC 8099, 24 h) | MBC [1] | MIC [1] | MBC [3] | MIC [3]
CC(=O)OC[C@H]1O[C@@H](Sc2nnc(-c3ccccc3O)n2/N=C/c2ccccc2)[C@H](OC(C)=O)[C@@H](OC(C)=O)[C@@H]1OC(C)=O | 256 µg/mL (≈ 409 µM) | 128 µg/mL (≈ 204 µM) | 32 µg/mL (≈ 51.1 µM) | 32 µg/mL (≈ 51.1 µM) | 256 µg/mL (≈ 409 µM) | 128 µg/mL (≈ 204 µM) |  |  |  | 
CC(=O)OC[C@H]1O[C@@H](Sc2nnc(-c3ccccc3)n2/N=C/c2cc(Cl)ccc2O)[C@H](OC(C)=O)[C@@H](OC(C)=O)[C@@H]1OC(C)=O | 128 µg/mL (≈ 194 µM) | 64 µg/mL (≈ 96.8 µM) | 32 µg/mL (≈ 48.4 µM) | 16 µg/mL (≈ 24.2 µM) | 128 µg/mL (≈ 194 µM) | 128 µg/mL (≈ 194 µM) |  |  |  | 
GENTAMICIN |  |  | 4 µg/mL | 4 µg/mL |  |  | 2 µg/mL | 2 µg/mL | 4 µg/mL | 2 µg/mL
CC(=O)OC[C@H]1O[C@@H](Sc2nnc(-c3ccccc3)n2/N=C/c2cc(Br)cc(Br)c2O)[C@H](OC(C)=O)[C@@H](OC(C)=O)[C@@H]1OC(C)=O | 32 µg/mL (≈ 40.8 µM) | 16 µg/mL (≈ 20.4 µM) | 16 µg/mL (≈ 20.4 µM) | 16 µg/mL (≈ 20.4 µM) | 16 µg/mL (≈ 20.4 µM) | 16 µg/mL (≈ 20.4 µM) |  |  |  | 
Oc1cc(Cl)ccc1Oc1ccc(Cl)cc1Cl [TRICLOSAN] | 4 µg/mL (≈ 13.8 µM) | 4 µg/mL (≈ 13.8 µM) | 64 µg/mL (≈ 221 µM) | 32 µg/mL (≈ 111 µM) | 4 µg/mL (≈ 13.8 µM) | 2 µg/mL (≈ 6.91 µM) |  |  |  | 
OC(Cn1cncn1)(Cn1cncn1)c1ccc(F)cc1F [FLUCONAZOLE] | 32 µg/mL (≈ 104 µM) | 16 µg/mL (≈ 52.2 µM) | 4 µg/mL (≈ 13.1 µM) | 2 µg/mL (≈ 6.53 µM) | 128 µg/mL (≈ 418 µM) | 128 µg/mL (≈ 418 µM) |  |  |  | 
CC(=O)OC[C@H]1O[C@@H](Sc2nnc(-c3ccccc3O)n2/N=C/c2ccccc2Cl)[C@H](OC(C)=O)[C@@H](OC(C)=O)[C@@H]1OC(C)=O | 128 µg/mL (≈ 194 µM) | 128 µg/mL (≈ 194 µM) | 64 µg/mL (≈ 96.8 µM) | 32 µg/mL (≈ 48.4 µM) | 128 µg/mL (≈ 194 µM) | 128 µg/mL (≈ 194 µM) |  |  |  | 
CC(=O)OC[C@H]1O[C@@H](Sc2nnc(-c3ccccc3)n2/N=C/c2ccccc2)[C@H](OC(C)=O)[C@@H](OC(C)=O)[C@@H]1OC(C)=O | 64 µg/mL (≈ 105 µM) | 64 µg/mL (≈ 105 µM) | 64 µg/mL (≈ 105 µM) | 32 µg/mL (≈ 52.4 µM) | 128 µg/mL (≈ 210 µM) | 128 µg/mL (≈ 210 µM) |  |  |  | 
CC(=O)OC[C@H]1O[C@@H](Sc2nnc(-c3ccccc3)n2/N=C/c2cc(Br)ccc2O)[C@H](OC(C)=O)[C@@H](OC(C)=O)[C@@H]1OC(C)=O | 32 µg/mL (≈ 45.4 µM) | 32 µg/mL (≈ 45.4 µM) | 16 µg/mL (≈ 22.7 µM) | 16 µg/mL (≈ 22.7 µM) | 128 µg/mL (≈ 181 µM) | 128 µg/mL (≈ 181 µM) |  |  |  | 
CC(=O)OC[C@H]1O[C@@H](Sc2nnc(-c3ccccc3)n2/N=C/c2ccccc2Cl)[C@H](OC(C)=O)[C@@H](OC(C)=O)[C@@H]1OC(C)=O | 128 µg/mL (≈ 198 µM) | 128 µg/mL (≈ 198 µM) | 64 µg/mL (≈ 99.2 µM) | 64 µg/mL (≈ 99.2 µM) | 128 µg/mL (≈ 198 µM) | 128 µg/mL (≈ 198 µM) |  |  |  | 
CC(=O)OC[C@H]1O[C@@H](Sc2nnc(-c3ccccc3)n2/N=C/c2ccccc2O)[C@H](OC(C)=O)[C@@H](OC(C)=O)[C@@H]1OC(C)=O | 128 µg/mL (≈ 204 µM) | 64 µg/mL (≈ 102 µM) | 64 µg/mL (≈ 102 µM) | 32 µg/mL (≈ 51.1 µM) |  |  |  |  | inactive | inactive
CC(=O)OC[C@H]1O[C@@H](Sc2nnc(-c3ccccc3O)n2/N=C/c2cc(Br)cc(Br)c2O)[C@H](OC(C)=O)[C@@H](OC(C)=O)[C@@H]1OC(C)=O | 32 µg/mL (≈ 40 µM) | 32 µg/mL (≈ 40 µM) | 32 µg/mL (≈ 40 µM) | 16 µg/mL (≈ 20 µM) | 16 µg/mL (≈ 20 µM) | 16 µg/mL (≈ 20 µM) |  |  |  | 
CC(=O)OC[C@H]1O[C@@H](Sc2nnc(-c3ccccc3O)n2/N=C/c2cc(Br)ccc2O)[C@H](OC(C)=O)[C@@H](OC(C)=O)[C@@H]1OC(C)=O | 128 µg/mL (≈ 177 µM) | 64 µg/mL (≈ 88.7 µM) | 16 µg/mL (≈ 22.2 µM) | 16 µg/mL (≈ 22.2 µM) | 128 µg/mL (≈ 177 µM) | 128 µg/mL (≈ 177 µM) |  |  |  | 
CC(=O)OC[C@H]1O[C@@H](Sc2nnc(-c3ccccc3O)n2/N=C/c2cc(Cl)ccc2O)[C@H](OC(C)=O)[C@@H](OC(C)=O)[C@@H]1OC(C)=O | 128 µg/mL (≈ 189 µM) | 128 µg/mL (≈ 189 µM) | 32 µg/mL (≈ 47.3 µM) | 16 µg/mL (≈ 23.6 µM) | 256 µg/mL (≈ 378 µM) | 128 µg/mL (≈ 189 µM) |  |  |  | 
CC(=O)OC[C@H]1O[C@@H](Sc2nnc(-c3ccccc3O)n2/N=C/c2ccccc2O)[C@H](OC(C)=O)[C@@H](OC(C)=O)[C@@H]1OC(C)=O | 128 µg/mL (≈ 199 µM) | 128 µg/mL (≈ 199 µM) | 64 µg/mL (≈ 99.6 µM) | 64 µg/mL (≈ 99.6 µM) | 64 µg/mL (≈ 99.6 µM) | 64 µg/mL (≈ 99.6 µM) |  |  |  | 
